This test concerns anti-2-Hydroxyhippuric acid antibody. Briefly: Competitive immunoassay for detecting 2-hydroxyhippuric acid (microfluidic device, fluorescent latex particle conjugate). The settings on record: analyte diluted into pools of human plasma, fluorescence read in TRIAGE meter after >15 minutes. Format: binding. The source says:
A competitive assay for detecting 2-hydroxyhippuric acid in […] was developed using microfluidic devices manufactured at Alere San Diego, Inc. essentially as described in WO98/43739, WO98/08606, WO98/21563, and WO93/24231. An anti-2-Hydroxyhippuric acid antibody was developed by phage display using a hapten-KLH conjugate as immunogen. This antibody was conjugated to a 0.13 μm maleimide-functionalized latex particle via a free cysteine residue on the antibody. The detection reagent consisted of a 0.50 μm fluorescence energy transfer latex particle (essentially as described in U.S. Pat. Nos. 5,763,189, 6,238,931, and 6,251,687; and International Publication WO95/08772) made according to Example 6. […] (comprising 0.22% solids) of the antibody-particle conjugate was spotted onto the diagnostic lane of the microfluidic device, and 170 nL (comprising 0.4% solids) of the 2-Hydroxyhippuric acid-particle conjugate was applied to the device reaction chamber. Analytes were dissolved in deionized water, then diluted into pools of human plasma to achieve the desired final concentration. 210 μL of sample was applied to the device sample addition zone and allowed to run >15 minutes prior to reading the fluorescence in the TRIAGE (Biosite Incorporated) meter. A fluorescent signal was obtained by integrating the fluorescence as a function of distance from the device origin.

On to `O=C(O)CNC(=O)c1ccccc1O` [2-Hydroxyhippuric acid, 2-hydroxyhippuric acid], for which the “concentration at which the assay detected the analyte” value came to 10 µg/mL.

The values above are taken from patent US20140234365A1, “2-HYDROXYHIPPURIC ACID ANALOGS, AND METHODS FOR THEIR SYNTHESIS AND USE” (ALERE SAN DIEGO, INC., priority 2011, published 2014).
